Patent US20190008848A1, “IDENTIFICATION OF ADDITIONAL ANTI-PERSISTER ACTIVITY AGAINST BORRELIA BURGDORFERI FROM AN FDA DRUG LIBRARY” (THE JOHNS HOPKINS UNIVERSITY, priority 2015, published 2019)
Structures can show the parent of a compound that is named as a salt. Where two headings read alike, the source gives them in different places.

Test system: stationary phase B. burgdorferi
Assay: SYBR Green I/PI viability assay (drug library screen, plate reader)
Conditions: for viability at 50 µM: Borreliella burgdorferi, 168 h; for activity against stationary phase B. burgdorferi (in words): screen at 50 μM
Procedure: Borrelia burgdorferi strain B31 (ATCC35210) was received from the […] (Manassas, Va., USA) and was grown in BSK-H medium (HiMedia Laboratories, Mumbai, India) and 6% rabbit serum (Sigma Aldrich, St. Louis, Mo., USA). The culture was filtered and sterilized using a […] and incubated in capped sterile 50 mL conical tubes (BD Biosciences, CA, USA) at 33° C. for 7 days without antibiotics until the culture reached stationary phase.
The cultures were examined using a Nikon Eclipse E800 microscope with differential interference contrast and epifluorescent illumination. The pictures were captured using a SPOT slider color camera. A SYBR Green I/PI assay was used to assess the viability of the bacterial sample using the ratio of live to dead B. burgdorferi (measured with green and red fluorescence, respectively) as measured by a plate reader.
Briefly, prediluted drug stock (10 μL) was added to 7 day old stationary phase B. burgdorferi culture (90 μL) to achieve a 50 μM final drug concentration per well. The plates were then incubated at 33° C. for 7 days at which point the SYBR/PI rapid viability assay was performed in a fluorescence plate reader to obtain the green-red fluorescence ratio.

[1] = read-out: Residual viable cells (SYBR/PI), Table 3, drugs 50 μM, 7-day old stationary phase cells treated for 7 days
[2] = Table 3, drugs 50 μM, 7-day old stationary phase cells treated for 7 days
[3] = read-out: Residual viable cells (SYBR/PI)
[4] = read-out: Residual viable cells (SYBR Green/PI), Table 1, drugs 50 μM, 7 day old stationary phase cells treated for 7 days

Row | Structure (SMILES) | viability at 50 µM [1] | also measured
1 | Cc1cn([C@H]2C=C[C@@H](CO)O2)c(=O)[nH]c1=O [2′,3′-Didehydro-3′-Deoxythymidine] | 65% | –
2 | O=C(Nc1ccc(Cl)cc1)Nc1ccc(Cl)c(Cl)c1 [3,4,4′-Trichlorocarbanilide] | – | Residual viable cells (SYBR/PI) [2]: 45%
3 | Nc1ccc(C(=O)O)c(O)c1 [4-Aminosalicylic acid] | – | viability at 50 µM [3]: 66%
4 | NC12CC3CC(CC(C3)C1)C2 [Amantadine hydrochloride] | 65% | Residual viable cells (SYBR/PI) (Borrelia burgdorferi, 7 days, 50 μM): 69%
5 | NCC[C@H](O)C(=O)N[C@@H]1C[C@H](N)[C@@H](O[C@H]2O[C@H](CN)[C@@H](O)[C@H](O)[C@H]2O)[C@H](O)[C@H]1O[C@H]1O[C@H](CO)[C@@H](O)[C@H](N)[C@H]1O [Amikacin] | 57% | –
6 | CC1(C)S[C@@H]2[C@H](NC(=O)[C@H](N)c3ccccc3)C(=O)N2[C@H]1C(=O)O [Ampicillin] | 64% | –
7 | COc1ccc(C[C@H]2NC[C@H](O)[C@H]2OC(C)=O)cc1 [Anisomycin] | – | Residual viable cells (SYBR/PI) [2]: 68%
8 | C[C@H]1[C@H](OC(=O)CCC(=O)O)O[C@@H]2O[C@@]3(C)CC[C@H]4[C@H](C)CC[C@@H]1[C@@]24OO3 [Artesunate] | 58% | –
9 | O=C(Cn1ccnc1[N+](=O)[O-])NCc1ccccc1 [Benznidazole] | 53% | –
10 | O=C(Nc1ccc(C(=O)O)c(O)c1)c1ccccc1 [Benzoylpas, 4-Benzamido salicylic acid, calcium salt] | 55% | viability at 50 µM [4]: 55%
11 | O=C(O)CCNC(=O)c1ccccc1 [Betamipron (n-benzoyl-b-alanine), n-benzoyl-b-alanine] | 68% | –
12 | S=C=Nc1ccc(N=C=S)cc1 [Bitoscanate] | – | viability at 50 µM (read-out: Residual viable cells (SYBR Green/PI)): 46%; viability at 50 µM [3]: 46%
13 | Clc1ccc(CCC(Cn2ccnc2)Sc2c(Cl)cccc2Cl)cc1 (centres unmarked) [Butoconazole nitrate] | 74% | –
14 | CCCCCl [Butyl chloride (1-Chlorobutane), 1-Chlorobutane] | – | viability at 50 µM [3]: 41%; activity against stationary phase B. burgdorferi (in words) (7 days): very high activities
15 | COC(=O)N/N=C/c1c[n+]([O-])c2ccccc2[n+]1[O-] [Carbadox] | 69% | –
16 | NS(=O)(=O)c1ccc(C(=O)O)cc1 [Carzenide (4-Carboxybenzenesulfonamide), 4-Carboxybenzenesulfonamide] | 59% | –
17 | NC(=O)c1cc[n+](CC2=C(C(=O)O)N3C(=O)[C@@H](NC(=O)[C@@H](c4ccccc4)S(=O)(=O)[O-])[C@H]3SC2)cc1 [Cefsulodin] | 60% | viability at 50 µM [4]: 60%
18 | CC(=O)OCC1=C(C(=O)O)N2C(=O)[C@@H](NC(=O)CCC[C@@H](N)C(=O)O)[C@H]2SC1 [Cephalosporin C] | – | Residual viable cells (SYBR/PI) [2]: 58%
19 | Cc1cc(C2CCCCC2)n(O)c(=O)c1 [Ciclopirox olamine] | 66% | –
20 | NC1CCN(c2c(F)cc3c(=O)c(C(=O)O)cn(C4CC4)c3c2Cl)C1 (centres unmarked) [Clinafloxacin] | 60% | –
21 | CC(C)(C)CC(C)(C)c1ccc(O)c(Cc2ccc(Cl)cc2Cl)c1 [Clofoctol] | 73% | –

Row | Structure (SMILES) | viability at 50 µM [1] | also measured
22 | Cc1nc(C)c(Cl)c(O)c1Cl [Clopidol] | 57% | –
23 | Nc1cc(C(Cl)=C(Cl)Cl)c(S(N)(=O)=O)cc1S(N)(=O)=O [Clorsulon] | 71% | –
24 | Cc1cc(C(C#N)c2ccc(Cl)cc2)c(Cl)cc1NC(=O)c1cc(I)cc(I)c1O (centres unmarked) [Closantel] | 56% | –
25 | Clc1ccccc1C(c1ccccc1)(c1ccccc1)n1ccnc1 [Clotrimazole] | 68% | –
26 | Oc1ccc(Cl)c2cccnc12 [Cloxyquin (5-chloro-8-hydroxy-quinoline), 5-chloro-8-hydroxy-quinoline] | 60% | –
27 | N#CCC(=O)NN [Cyacetacide] | 61% | viability at 50 µM [4]: 61%
28 | NC[C@@H]1CC[C@@H](N)[C@@H](O[C@H]2[C@H](O)[C@@H](O[C@H]3O[C@H](CO)[C@@H](O)[C@H](N)[C@H]3O)[C@H](N)C[C@@H]2N)O1 [Dibekacin] | 70% | –
29 | N#CC(c1ccc(Cl)cc1)c1c(Cl)cc(-n2ncc(=O)[nH]c2=O)cc1Cl (centres unmarked) [Diclazuril] | 63% | –
30 | O=c1[nH]cnc2c1ncn2[C@H]1CC[C@@H](CO)O1 [Didanosine, 2′-3′-dideoxyinosine] | 61% | viability at 50 µM [4]: 61%
31 | CCCCCCCCCCCCCCCCCCCCCCO [Docosanol] | 55% | –
32 | O=C1Nc2ccc(Cl)cc2[C@@](C#CC2CC2)(C(F)(F)F)O1 [Efavirenz] | 60% | –
33 | CCOc1ccc2nc3cc(N)ccc3c(N)c2c1 [Ethacridine lactate] | 48% | viability at 50 µM [4]: 48%
34 | CC(=O)OCC(CCn1cnc2cnc(N)nc21)COC(C)=O [Famciclovir] | 68% | –
35 | CN1CCN(c2c(F)cc3c(=O)c(C(=O)O)cn(CCF)c3c2F)CC1 [Fleroxacin] | 73% | –
36 | CS(=O)(=O)c1ccc([C@@H](O)[C@@H](CF)NC(=O)C(Cl)Cl)cc1 [Florfenicol] | 53% | –
37 | O=c1[nH]c(=O)n([C@H]2C[C@H](O)[C@@H](CO)O2)cc1F [Floxuridine, 5-fluorodeoxyuridine] | 61% | viability at 50 µM [4]: 61%
38 | COC(=O)Nc1nc2cc(C(=O)c3ccc(F)cc3)ccc2[nH]1 [Flubendazole] | 54% | viability at 50 µM [4]: 54%
39 | Nc1nc(O)c2ncn(COC(CO)CO)c2n1 [Ganciclovir] | 53% | viability at 50 µM [4]: 53%
40 | COC1=CC(=O)C[C@@H](C)[C@]12Oc1c(Cl)c(OC)cc(OC)c1C2=O [Griseofulvin] | 63% | viability at 50 µM [4]: 63%
41 | CCN(CC)CCNc1ccc(CO)c2sc3ccccc3c(=O)c12 [Hycanthone] | 45% | viability at 50 µM [4]: 45%
42 | CC(C)Cn1cnc2c(N)nc3ccccc3c21 [Imiquimod] | – | viability at 50 µM [3]: 64%

Row | Structure (SMILES) | viability at 50 µM [1] | also measured
43 | Nc1ccn([C@@H]2CS[C@H](CO)O2)c(=O)n1 [Lamivudine] | 58% | viability at 50 µM [4]: 58%
44 | COC(=O)c1ccc(O)c2nc3c(C=O)c(O)cc(O)c3nc12 [Lomofungin] | 58% | –
45 | C=N[C@@H](C(=O)N[C@@H]1C(=O)N2[C@@H]1SC(C)(C)[C@@H]2C(=O)O)c1ccccc1 [Metampicillin] | 57% | –
46 | COP(=O)(OC)C(O)C(Cl)(Cl)Cl (centres unmarked) [Metrifonate] | – | viability at 50 µM [3]: 51%
47 | CCC(=O)O[C@@H]1CC(=O)O[C@H](C)C/C=C/C=C/[C@H](O)[C@H](C)C[C@H](CC=O)[C@H](O[C@@H]2O[C@H](C)[C@@H](O[C@H]3C[C@@](C)(O)[C@@H](OC(=O)CC)[C@H](C)O3)[C@H](N(C)C)[C@H]2O)[C@H]1OC [Midecamycin] | 54% | –
48 | Cc1c(O)cccc1C(=O)N[C@@H](CSc1ccccc1)[C@H](O)CN1C[C@H]2CCCC[C@H]2C[C@H]1C(=O)NC(C)(C)C [Nelfinavir mesylate] | 66% | –
49 | Cc1ccnc2c1NC(=O)c1cccnc1N2C1CC1 [Nevirapine] | 51% | viability at 50 µM [4]: 51%; activity against stationary phase B. burgdorferi (in words) (7 days): good activity
50 | O=C(N/N=C/c1ccc([N+](=O)[O-])o1)c1cc([N+](=O)[O-])cc([N+](=O)[O-])c1O [Nifursol] | 51% | –
51 | O=[N+]([O-])c1ccc(O)c2ncccc12 [Nitroxoline (8-hydroxy 5-nitroquinoline), 8-hydroxy 5-nitroquinoline] | 66% | –
52 | C[C@@H]1[C@H](O)[C@@H](C)/C=C/C=C/CC/C=C/C=C/C=C/C=C/C(O[C@H]2O[C@H](C)[C@@H](O)[C@H](N)[C@@H]2O)CC2O[C@](O)(CC(O)C(O)CCC(O)CC(O)CC(O)CC(=O)O[C@H]1C)CC(O)C2C(=O)O (some centres unmarked) [Nystatin] | – | Residual viable cells (SYBR Green/PI) (Table 1, drugs 50 μM, 7 day old stationary phase cells treated for 7 days): 64%; Residual viable cells (SYBR/PI) [2]: 64%; activity against stationary phase B. burgdorferi (in words) (7 days): reasonable activity
53 | COC(=O)Nc1nc2ccc([S+]([O-])c3ccccc3)cc2[nH]1 (centres unmarked) [Oxfendazole] | 54% | viability at 50 µM [4]: 54%
54 | CCCOc1ccc2nc(NC(=O)OC)[nH]c2c1 [Oxibendazole] | 51% | viability at 50 µM [4]: 51%
55 | Clc1ccc(CO/N=C(\Cn2ccnc2)c2ccc(Cl)cc2Cl)c(Cl)c1 [Oxiconazole nitrate] | 62% | viability at 50 µM [4]: 62%
56 | C[C@H]1COc2c(C3(N)CC3)c(F)cc3c(=O)c(C(=O)O)cn1c23 [Pazufloxacin] | 69% | –
57 | [I-].[K+] [Potassium iodide] | – | Residual viable cells (SYBR/PI) [2]: 65%
58 | CCCc1cc(C(N)=S)ccn1 [Protionamide] | 63% | –
59 | NC(=O)c1ncn([C@@H]2O[C@H](CO)[C@@H](O)[C@H]2O)n1 [Ribavirin] | 63% | viability at 50 µM [4]: 63%
60 | CCC[S+]([O-])c1ccc2[nH]c(NC(=O)OC)nc2c1 (centres unmarked) [Ricobendazole (Albendazole oxide), Albendazole oxide] | – | viability at 50 µM [3]: 57%
61 | CO[C@H]1/C=C/O[C@@]2(C)Oc3c(C)c(O)c4c(O)c(c5c(nc6cc(C)ccn65)c4c3C2=O)NC(=O)/C(C)=C\C=C\[C@H](C)[C@H](O)[C@@H](C)[C@@H](O)[C@@H](C)[C@H](OC(C)=O)[C@@H]1C [Rifaximin] | 51% | –
